Measurements reported in patent publication US20230302031A1, “Modulators Of Purinergic Receptors and Related Immune Checkpoint For Treating Acute Respiratory Distress Syndrome” (priority 2020, published 2023).

Columns and labels:
MDMs [1] = experiment: IRF5 expression in MDMs (western blot); type: cell-based, human; conditions: FIG. 6N
MDMs [2] = experiment: IL-10 secretion by MDMs; type: cell-based, human; conditions: 100 μM, FIG. 6K
[3] = tested on: PMA-treated THP1 macrophages; experiment: IL-1β release from LPS+ATP-stimulated PMA-THP1 macrophages (western blot/ELISA); type: cell-based, human; conditions: 100 μM compound; 10 ng/mL LPS 3 hours + 5 mM ATP 6 hours; FIG. 6E, 6I
Method: Human THP-1 cells were cultured in RPMI 1640 media, supplemented with 10% FBS and differentiated by treatment for 3 hours with 100 nM phorbol-12-myristate-13-acetate (PMA, Invivogen). After 2 days, macrophage THP-1 cells were stimulated first 3 hours with ultrapure LPS from E. coli (10 ng/ml, LPS) and then stimulated for 6 hours with ATP (5 mM, Sigma) or treated with 50 ng or 20 ng of IFNg during 24 or 12 hours as indicated. Then, supernatants and cells were collected for western blot analysis.
Cells or supernatant were lysed in appropriated buffer (250 mM NaCl, 0.1% NP-40, 5 mM EDTA, 10 mM Na3VO4, 10 mM NaF, 5 mM DTT, 3 mM Na4P2O7, 1 mM EGTA, 10 mM Glycerol phosphate, 10 mM Tris-Hcl (pH=7.5) and the protease and phosphatase inhibitors (Roche)). Equal amount of supernatant or 10-40 μg of protein extracts were run on 4-12% or 10% SDS-PAGE and transferred at 4° C. onto a nitrocellulose membrane (0.2 Micron). After incubation for 2 hours at room temperature with 5% nonfat milk or BSA (Bovine Serum Albumine) in Tris-buffered saline and 0.1% Tween 20 (TBS-Tween), membranes were incubated with primary antibody at 4° C. overnight. […] The primary antibodies against. […] Western blots shown are representative of at least of three independent experiments.
(§1) Plasma serum from P2y2^+/+ and P2y2^−/− mice and supernatants harvested from PMA-stimulated THP1 macrophages that were depleted or not for P2Y2 or NLRP3, and/or stimulated with 10 ng/mL LPS during 3 hours and 5 mM ATP during 6 hours or with 20 ng/mL IFNγ, in presence or in absence of 100 μM Suramin, 100 μM OxATP, 100 μM Kaempferol or 100 μM Diquafosol at indicated times were analyzed using western blot or ELISA for IL-1β (Ebioscience) and IL-10 (BD) according to the manufacturers' instructions.

[4] = tested on: PMA-differentiated THP1 macrophages; experiment: LDH release from PMA-differentiated THP1 macrophages; type: cell-based, human; conditions: treated or not with LPS and ATP; FIG. 5H
MDMs [5] = experiment: Microarray of human macrophage polarization-specific markers in MDMs; type: cell-based; conditions: 100 μM, 72 hours, FIG. 6Q
Method: MDMS were treated with 100 μM Kaempferol during 72 hours. Then, mRNAs were isolated using RNeasy kit (#74104, Quiagen) and gene expression analyses were performed with Agilent® SurePrint G3 Human GE 8x60K Microarray (Agilent Technologies, AMADID 39494) with the following single-color design. RNAs were labeled with Cy3 using the one-color Agilent labeling kit (Low Input Quick Amp Labeling Kit 5190-2306) adapted for small amount of total RNA (100 ng total RNA per reaction). Hybridization were then performed on microarray using 800 ng of linearly amplified cRNA labeled, following the manufacturer protocol (Agilent SureHyb Chamber; 800 ng of labeled extract; duration of hybridization of 17 hours; 40 μL per array; Temperature of 65° C.). […] Microarray images were analyzed by means of Feature Extraction software version (10.7.3.1) from Agitent technologies. […]
Raw data files from Feature Extraction were imported into R with LIMMA (Smyth, 2004, Statistical applications in Genetics and molecular biology, vol 3, N°1, article 3), an R package from the Bioconductor project, and processed as follow: gMedianSignal data were imported, controls probes were systematically removed, and flagged probes (gisSaturated, glsFeatpopnOL, glsFeatNonUnifOL) were set to NA. […] Normalized data were then analyzed. […]

[6] = tested on: human monocyte derived macrophages (MDMs); experiment: IL-1β release from monocyte derived macrophages (MDMs); type: cell-based; conditions: 100 μM, FIG. 6G
[7] = tested on: PMA-treated THP1 macrophages; experiment: IL-10 secretion by PMA-treated THP1 macrophages; type: cell-based, human; conditions: 100 μM, FIG. 6J
Method: as §1

MDMs [8] = type: cell-based, human; conditions: FIG. 6L, 6M
[9] = tested on: COVID-19 patients with severe inflammatory failure; conditions: early administration; retrospective study, reference 51; cited from earlier work
SARS-CoV-2 = conditions: reference 50; cited from earlier work

## O=c1c(O)c(-c2ccc(O)cc2)oc2cc(O)cc(O)c12 [Kaempferol]
MDMs [1]
  expression of IRF5: increased expression of the pro-inflammatory transcription factor IFN regulatory factor 5 (IRF5)
MDMs [2]
  secretion of IL-10: reduced secretion of the immunosuppressive cytokine interleukin-10 (IL-10)
[3]
  IL-1β release: increased IL-1β release
[4]
  LDH release (cell death marker): released the cell death marker, lactate dehydrogenase (LDH)
MDMs [5]
  known human markers of macrophage activation induced: 90%
[6]
  IL-1β release: increased IL-1β release
[7]
  secretion of IL-10: reduced secretion of the immunosuppressive cytokine interleukin-10 (IL-10)
MDMs [8]
  membrane expression of CD163: diminished membrane expression of anti-inflammatory macrophage activation marker CD163

## anakinra: IL-1 receptor antagonist
[9]
  prognosis of COVID-19 patients: significantly improved prognosis of COVID-19 patients with severe inflammatory failure

## Ivermectin
SARS-CoV-2
  replication of SARS-CoV-2 in vitro: inhibit the replication of SARS-CoV-2 in vitro
